Test results published in patent US9889183B2, “PKC activators and anticoagulant in regimen for treating stroke” (BLANCHETTE ROCKEFELLER NEUROSCIENCES INSTITUTE, priority 2010, dated 2018).

Experiments:
PKCε = target: T1, PKCε (Homo sapiens, UniProt Q02156); experiment: PKC assay with purified PKCε; type: biochemical
T1 construct: purchased Calbiochem
T1 sequence (Q02156 1-737): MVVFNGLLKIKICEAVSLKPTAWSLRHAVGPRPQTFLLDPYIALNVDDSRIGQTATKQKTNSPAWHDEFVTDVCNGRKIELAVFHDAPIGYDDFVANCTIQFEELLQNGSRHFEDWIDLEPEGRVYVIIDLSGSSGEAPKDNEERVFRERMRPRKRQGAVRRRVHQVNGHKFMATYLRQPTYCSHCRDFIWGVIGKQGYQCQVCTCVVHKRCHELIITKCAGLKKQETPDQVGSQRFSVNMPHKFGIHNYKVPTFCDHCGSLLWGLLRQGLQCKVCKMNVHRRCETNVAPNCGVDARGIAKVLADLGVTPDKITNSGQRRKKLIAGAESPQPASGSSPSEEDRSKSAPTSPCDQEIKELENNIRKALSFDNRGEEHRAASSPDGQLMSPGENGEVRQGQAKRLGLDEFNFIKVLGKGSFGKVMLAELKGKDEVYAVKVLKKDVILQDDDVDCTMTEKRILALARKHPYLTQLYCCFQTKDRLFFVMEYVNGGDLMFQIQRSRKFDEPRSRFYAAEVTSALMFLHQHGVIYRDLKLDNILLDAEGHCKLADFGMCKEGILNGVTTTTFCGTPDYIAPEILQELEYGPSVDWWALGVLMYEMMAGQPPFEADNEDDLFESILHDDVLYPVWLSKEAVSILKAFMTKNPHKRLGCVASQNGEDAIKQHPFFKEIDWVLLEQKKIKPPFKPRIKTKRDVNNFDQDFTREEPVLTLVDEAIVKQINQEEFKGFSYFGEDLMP
Method: PKC assay. Recombinant PKC (1 ng of PKCα or PKCε isoform) was mixed with BR-101 (DCP-LA) in the presence of 10 micromolar histones, 5 mM CaCl2, 1.2 μg/μl phosphatidyl-L-serine, 0.18 μg/μl 1,2-dioctanoyl-sn-glycerol (DAG), 10 mM MgCl2, 20 mM HEPES (pH 7.4), 0.8 mM EDTA, 4 mM EGTA, 4% glycerol, 8 μg/ml aprotinin, 8 μg/ml leupeptin, and 2 mM benzamidine. 0.5 micro Ci[^γ32P]ATP was added. The incubation mixture was incubated for 15 min at 37 degrees in a total volume of 10 microliters. The reaction was stopped by spotting the reaction mixtures on 1×2 cm strips of cellulose phosphate paper (Whatman P81) and immediately washing twice for 1 hr in 0.5% H3PO4. The cellulose phosphate strips were counted in a scintillation counter. In some experiments, phosphatidylserine, diacylglycerol, and/or calcium were removed.
DHA methyl ester was purchased from Cayman Chemical (Ann Arbor, Me.). PKC isozymes were from Calbiochem (San Diego, Calif.). Purified PKCε was purchased from Calbiochem.
Protein kinase C assay. Rat hippocampal cells were cultured and scraped in 0.2 ml homogenization buffer (20 mM Tris-HCl, pH 7.4, 50 mM NaF, 1 μg/ml leupeptin, and 0.1 mM PMSF) and homogenized by sonication a Marsonix microprobe sonicator (5 sec, 10 W). To measure PKC, 10 μl of cell homogenate or purified PKC isozyme (purchased from Calbiochem) was incubated for 15 min at 37° C. in the presence of 10 μM histones, 4.89 mM CaCl2, 1.2 μg/μl phosphatidyl-L-serine, 0.18 μg/μl 1,2-dioctanoyl-sn-glycerol, 10 mM MgCl2, 20 mM HEPES (pH 7.4), 0.8 mM EDTA, 4 mM EGTA, 4% glycerol, 8 μg/ml aprotinin, 8 μg/ml leupeptin, and 2 mM benzamidine. […][^γ32P]ATP was added and ^32P-phosphoprotein formation was measured by adsorption onto phosphocellulose as described previously. Nelson and Alkon, J. Neurochemistry (1995), vol. 65, pp. 2350-2357. For measurements of activation by BR-101 (DCP-LA) and similar compounds. PKC activity was measured in the absence of diacylglycerol and phosphatidylserine and PKC δ, ε, η, and μ were measured in the absence of added EGTA and CaCl2, as described by Kanno et al. (J. Lipid Res. 2006, vol. 47, pp. 1146-1150). Low concentrations of Ca^2+ are used because high Ca^2+ interacts with the PKC phosphatidylserine binding site and prevents activation. For measurements of bryostatin activation, 1,2-diacylglycerol was omitted unless otherwise stated.
To determine their PKC isozyme specificity, fatty acid derivatives were preincubated with purified PKC for five minutes and the PKC activity was measured radiometrically.

TACE in primary neurons = experiment: TACE assay, rat primary neurons; type: cell-based; conditions: FIG. 13b and 13c
Method: FIGS. 13a, 13b and 13c show effects of (FIG. 13a) bryostatin, BR-101 (DCP-LA) and BR-111 (DHA-CP6) on TACE activity in N2a neuroblastoma cells transfected with human APPSwe/PS1D; (FIG. 13b) various concentrations of bryostatin on TACE activity in rat cortical primary neurons; and (FIG. 13c) BR-111 (DHA-CP6) on TACE activity in rat cortical primary neurons.
TACE Assay. TACE was measured by incubating 5 μl cell homogenate, 3 μl buffer (50 mM Tris-HCl 7.4 plus 25 mM NaCl plus 4% glycerol), and 1 μl of 100 μM TACE substrate (Aβz-[…]-DPa) (Calbiochem) for 20 min at 37° C. 1.5-ml polypropylene centrifuge tubes. Jin et al., Anal. Biochem. (2002), vol. 302, pp. 269-275. The reaction was stopped by cooling to 4° C. The samples were diluted to 1 ml and the fluorescence was rapidly measured (ex=320 nm, em=420 nm) in a Spex Fluorolog 2 spectrofluorometer.
Buxbaum et al., J Biol. Chem. (1998), vol. 273, pp. 27765-27767; Etcheberrigaray et al., Proc. Natl. Acad. Sci. USA (2006), vol. 103, pp. 8215-8220. However, many of these earlier studies were carried out in fibroblasts and other non-neuronal cell types, which appear to respond differently to PKC activators than neurons.

[1] = test system: global cerebral ischemia/hypoxia in rats; experiment: Global cerebral ischemia/hypoxia, spatial learning and memory (Example 12); type: in vivo, rat
Method: Global cerebral ischemialhypoxia was induced in male Wistar rats (225-250 g) by permanently occluding the bilateral common carotid arteries, combined with about 14 minutes of low oxygen (about 5%). […] Spatial learning (2 trials/day for 4 days) and memory (a probe test of 1 minute, 24 hours after the last trial) task was performed 9 days after the last dose. Overall, there was a significant difference between the groups (F3,255=31.856, p<0.001) and groups x trials (F21,255=1.648, p<0.05). Global cerebral ischemia impaired the spatial learning (ischemial vs. sham-operated F1,127=[…]).

Row | SMILES | activation of PKCε (in words) (PKCε; at 10 μM) | concentration needed to activate PKC relative to BR-101 (DCP-LA) (PKCε) | activation of purified PKCε (in words) (PKCε; FIG. 7, methyl esters) | TACE activity (TACE in primary neurons) | memory retention (target quadrant preference) after ischemia ([1]; 15 μg/m^2, ischemic rats) | spatial learning, Bryostatin-1 alone vs sham-operated ([1]; 15 μg/m^2, non-ischemic rats) | target quadrant preference, Bryostatin-1 alone vs sham-operated ([1]; 15 μg/m^2, non-ischemic rats) | spatial learning impairment after ischemia ([1]; 15 μg/m^2 tail vein, 2 doses/week, 10 doses, start about 24 hours after event, tested 9 days after last dose)
1 | CCCCCC1CC1CC1CC1CCCCCCCC(=O)O (stereo not drawn) [BR-101, 2-[(2-pentylcyclopropyl)methyl]cyclopropaneoctanoic acid] | effective activator |  |  |  |  |  |  | 
2 | CCC1CC1CC1CC1CC1CC1CC1CC1CC1CC1CC1CC1CCC(=O)OC (stereo not drawn) [BR-111, methyl-3-(2-((2-((2-((2-((2-((2-ethylcyclopropyl)methyl)cyclopropyl)methyl)cyclopropyl)methyl)-cyclopropyl)methyl)cyclopropyl)methyl)cyclopropyl)propanoate] |  | approximately 100 times lower | activated purified PKCε to a similar extent | small increases |  |  |  | 
3 | CCC/C=C/C=C/C(=O)O[C@H]1/C(=C/C(=O)OC)C[C@H]2C[C@H]([C@@H](C)O)OC(=O)C[C@H](O)C[C@@H]3C[C@H](OC(C)=O)C(C)(C)[C@](O)(C[C@@H]4C/C(=C/C(=O)OC)C[C@H](/C=C/C(C)(C)[C@]1(O)O2)O4)O3 [Bryostatin-1, bryostatin-1] |  |  |  | small increases | effectively restored memory retention | did not affect the learning | no significant effects | restored
